Source: patent US5599548A, “Skin care compositions containing fatty acid amides and retinol or retinyl ester” (priority 1995, dated 1997)
“Also recorded” adds a separate entry of the source. Read-outs that look alike come from different tables or passages of the source.

Assays:
[1] = test system: TGase I (keratinocyte transglutaminase level); assay: Transglutaminase (TGase I) ELISA assay (keratinocyte differentiation); type: cell-based, human
Outline: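 Neonatal foreskin keratinocytes plated at 3,000 cells/well, treated with compounds after 4 days for 72 h, then freeze-fractured. TGase I measured by ELISA (mouse anti-human TGase primary, peroxidase anti-mouse secondary, o-phenylene diamine substrate, A492). Secondary-only background was subtracted; values are means ±s.d. of replicates.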

Human keratinocytes = assay: 3H-Thymidine incorporation (keratinocyte proliferation); type: cell-based; conditions: for activity at 0.001 µM / activity at 0.01 µM / activity at 1 µM / activity at 0.1 µM: Homo sapiens, Keratinocyte, 24 h; for activity at 1 µM: 10^-6 M; for activity at 0.1 µM: 10^-7 M
Outline: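 Neonatal foreskin keratinocytes (second passage, serum-free medium) were plated at 40,000 cells/well and grown to 60–70% confluence. Compounds were added in triplicate 24 h after a medium change, with 1 μCi 3H-thymidine 4 h later, followed by a further 24 h incubation. TCA-precipitated label was counted by liquid scintillation and expressed as DPM/μg protein.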

[2] = Table 7A, n = 9, read-out: mean Thymidine incorp/μg protein ± s.d
[3] = Table 7A, n = 9, read-out: thymidine incorporation, % control

Compound CCCCC/C=C\C/C=C\CCCCCCCC(=O)N(CCO)CCO [linoleoyl-DEA, Linoleoyl-Diethanolamide] has an activity at 1 µM ([1]; Homo sapiens, Keratinocyte, 72 h, Table 2B, RA, ROH 2.5 × 10^-7 M, linoleoyl-DEA 10^-6 M, alone or combined, 72 h, n = 9, read-out: TGase (TG1) level, % control) of 59%, an activity at 1 µM ([1]; Homo sapiens, Keratinocyte, Table 3B, RA, RP 2.5 × 10^-7 M, linoleoyl-DEA 10^-6 M, alone or combined, n = 3, read-out: TGase (TG1) level, % control) of 85% and an activity at 1 µM ([1]; Homo sapiens, Keratinocyte, Table 8A, 10^-6 M, n = 3, read-out: TGase, % control) of 87%. It also gave an activity at 0.1 µM ([1]; Homo sapiens, Keratinocyte, Table 8A, 10^-7 M, n = 3, read-out: TGase, % control) of 80%, an activity at 0.01 µM ([1]; Homo sapiens, Keratinocyte, Table 8A, 10^-8 M, n = 3, read-out: TGase, % control) of 86% and an activity at 0.001 µM ([1]; Homo sapiens, Keratinocyte, Table 8A, 10^-9 M, n = 3, read-out: TGase, % control) of 85%. For the same compound, the activity at 1 µM ([1]; Homo sapiens, Keratinocyte, Table 8B, 10^-6 M, n = 3, read-out: TGase, % control) was 37%, the activity at 0.0001 µM ([1]; Homo sapiens, Keratinocyte, Table 8B, 10^-10 M, n = 3, read-out: TGase, % control) was 66% and the “mean TGase ± s.d” value ([1]; Table 2B, RA, ROH 2.5 × 10^-7 M, linoleoyl-DEA 10^-6 M, alone or combined, 72 h, normalized to ethanol control, n = 9) was 0.594 ± 0.773. For the same compound, the “mean TGase ± s.d” value ([1]; Table 3B, RA, RP 2.5 × 10^-7 M, linoleoyl-DEA 10^-6 M, alone or combined, n = 3) was 0.186 ± 0.058, the “mean TGase ± s.d” value ([1]; Table 8A, 10^-6 M, n = 3) was 0.186 ± 0.058 and the “mean TGase ± s.d” value ([1]; Table 8A, 10^-7 M, n = 3) was 0.175 ± 0.059. The “mean TGase ± s.d” value ([1]; Table 8A, 10^-8 M, n = 3) was 0.188 ± 0.046, the “mean TGase ± s.d” value ([1]; Table 8A, 10^-9 M, n = 3) was 0.185 ± 0.031 and the “mean TGase ± s.d” value ([1]; Table 8B, 10^-6 M, n = 3) was 0.037 ± 0.008. The “mean TGase ± s.d” value ([1]; Table 8B, 10^-10 M, n = 3) was 0.080 ± 0.030, the activity at 0.001 µM (Human keratinocytes; Table 2A, RA, ROH 2.5 × 10^-8 M, linoleoyl-DEA 10^-9 M, alone or combined, n = 9, read-out: thymidine incorporation, % control) was 105% and the activity at 0.001 µM (Human keratinocytes; Table 2A, RA, ROH 2.5 × 10^-8 M, linoleoyl-DEA 10^-9 M, alone or combined, normalized to ethanol control, n = 9, read-out: mean Thymidine incorp./μg protein ± s.d) was 105 ± 15.8%. The activity at 0.01 µM (Human keratinocytes; Table 3A, RA 2.5 × 10^-9 M, RP 2.5 × 10^-7 M, linoleoyl-DEA 10^-8 M, alone or combined, n = 3, read-out: thymidine incorporation, % control) was 99%, the activity at 1 µM (Human keratinocytes; [2]) was 60.7 ± 8% and the activity at 1 µM (Human keratinocytes; [3]) was 61%. The activity at 0.1 µM (Human keratinocytes; [2]) was 101 ± 7.5%, the activity at 0.1 µM (Human keratinocytes; [3]) was 101% and the activity at 0.01 µM (Human keratinocytes; Table 7A, 10^-8 M, n = 9, read-out: mean Thymidine incorp/μg protein ± s.d) was 114 ± 20.6%. The activity at 0.01 µM (Human keratinocytes; Table 7A, 10^-8 M, n = 9, read-out: thymidine incorporation, % control) was 114%, the activity at 0.001 µM (Human keratinocytes; Table 7A, 10^-9 M, n = 9, read-out: mean Thymidine incorp/μg protein ± s.d) was 105 ± 15.8% and the activity at 0.001 µM (Human keratinocytes; Table 7A, 10^-9 M, n = 9, read-out: thymidine incorporation, % control) was 105%. The “mean Thymidine incorp./μg protein ± s.d” value (Human keratinocytes; Table 3A, RA 2.5 × 10^-9 M, RP 2.5 × 10^-7 M, linoleoyl-DEA 10^-8 M, alone or combined, n = 3) was 1692 ± 48 DPM/μg protein and the “effect on keratinocyte proliferation, in words” value (Human keratinocytes; concentrations as in the respective Example) was “minor, non-significant stimulatory effect on keratinocyte proliferation; also recorded: no effect on keratinocyte proliferation”.
